Assay results from patent US20150299188A1, “HETEROCYCLIC COMPOUND” (priority 2012, published 2015).

System: FLAP (5-lipoxygenase activating protein)
Assay: In vitro binding test: displacement of [3H]-7-chloro-3-(5-((3-fluoropyridin-2-yl)methoxy)-2-methylphenyl)-3,4-dihydroquinazolin-2(1H)-one from Sf9 microsome fractions
Design: species or system human and mouse
Conditions: Sf9 microsome fractions expressing FLAP; 100% = radioligand binding with 10 μM sodium 3-(3-(tert-butylsulfanyl)-1-(4-chlorobenzyl)-5-isopropyl-1H-indol-2-yl)-2,2-dimethylpropanoate, 0% = DMSO; test compound concentration not given
Experimental: As an assay buffer, 100 mM Tris-HCl, pH 7.5, 140 mM NaCl, 2 mM EDTA, 0.5 mM dithiothreitol, 5% glycerol, 0.05% Tween20 was used. Sf9 microsome fractions expressing human and mouse FLAPs were dispensed by 50 μL to a 96-well plate at 2 μg/mL. Furthermore, a test compound (25 μL) diluted 4-fold of the final concentration with the assay buffer was added and mixed therewith, and the mixture was incubated at room temperature for 10 min. Furthermore, 120 nM [^3H]-7-chloro-3-(5-((3-fluoropyridin-2-yl)methoxy)-2-methylphenyl)-3,4-dihydroquinazolin-2(1H)-one was added by 25 μL, and mixed therewith, and the mixture was incubated at room temperature for 60 min. Thereafter, the cells were transferred to a 96-well GF/B Unifilter plate with a FilterMate cell harvester, and washed 3 times with a wash buffer (100 mM Tris-HCl pH 7.5, 0.05% Tween20, 200 μL) cooled to 4° C. The GF/B Unifilter plate was dried at 37° C., Microscint 0 was added and measured by TopCount NXT (PerkinElmer). As for the inhibitory activity, the inhibitory rate was calculated wherein the [^3H]-7-chloro-3-(5-((3-fluoropyridin-2-yl)methoxy)-2-methylphenyl)-3,4-dihydroquinazolin-2(1H)-one binding amount in the presence of 10 μM sodium 3-(3-(tert-butylsulfanyl)-1-(4-chlorobenzyl)-5-isopropyl-1H-indol-2-yl)-2,2-dimethylpropanoate was 100%, and the [^3H]-7-chloro-3-(5-((3-fluoropyridin-2-yl)methoxy)-2-methylphenyl)-3,4-dihydroquinazolin-2(1H)-one binding amount in the presence of DMSO was 0%.

inhibitory rate (%)	SMILES
102%	COCCOc1ccc2c(=O)n(-c3cc(OCc4ncccc4F)ccc3C)c(=O)[nH]c2c1 [Example 356, 3-(5-((3-fluoropyridin-2-yl)methoxy)-2-methylphenyl)-7-(2-methoxyethoxy)quinazoline-2,4(1H,3H)-dione]
50%	O=c1[nH]c2ccccc2c(=O)n1-c1cc(OCc2c(F)cccc2F)ccn1 [Example 324, 3-(4-((2,6-difluorobenzyl)oxy)pyridin-2-yl)quinazoline-2,4(1H,3H)-dione]
110%	Cc1ccc(OCc2ncccc2F)cc1-n1c(=O)[nH]c2c(Cl)cccc2c1=O [Example 347, 8-chloro-3-(5-((3-fluoropyridin-2-yl)methoxy)-2-methylphenyl)quinazoline-2,4(1H,3H)-dione]
83%	Cc1ccc(OCc2ncccc2F)cc1N1Cc2cnccc2NC1=O [Example 268, 3-(5-((3-fluoropyridin-2-yl)methoxy)-2-methylphenyl)-3,4-dihydropyrido[4,3-d]pyrimidin-2(1H)-one]
108%	O=c1[nH]c2cccc(Cl)c2c(=O)n1-c1cc(OCc2ncccc2F)c(F)cc1Cl [Example 364, 5-chloro-3-(2-chloro-4-fluoro-5-((3-fluoropyridin-2-yl)methoxy)phenyl)quinazoline-2,4(1H,3H)-dione]
96%	Cc1cc2c(c(C3CC3)n1)CN(c1cc3c(cc1C)CCC(c1ncccc1F)O3)C(=O)N2 (centres unmarked) [Example 83, 5-cyclopropyl-3-(2-(3-fluoropyridin-2-yl)-6-methyl-3,4-dihydro-2H-chromen-7-yl)-7-methyl-3,4-dihydropyrido[4,3-d]pyrimidin-2(1H)-one]
96%	O=c1[nH]c2ccccc2c(=O)n1-c1cccc(OCc2ncccc2F)c1 [Example 346, 3-(3-((3-fluoropyridin-2-yl)methoxy)phenyl)quinazoline-2,4(1H,3H)-dione]
113%	Cc1ccc(OCc2ncccc2F)cc1N1Cc2ccc(Cl)cc2NC1=O [Example 244, 7-chloro-3-(5-((3-fluoropyridin-2-yl)methoxy)-2-methylphenyl)-3,4-dihydroquinazolin-2(1H)-one]
102%	Cc1ccc(OCc2ncccc2F)cc1N1Cc2c(Cl)cccc2NC1=O [Example 242, 5-chloro-3-(5-((3-fluoropyridin-2-yl)methoxy)-2-methylphenyl)-3,4-dihydroquinazolin-2(1H)-one]
100%	COC(=O)c1ccc2c(c1)NC(=O)N(c1cc(OCc3nccs3)ccc1C)C2 [Example 237, methyl 3-(2-methyl-5-(1,3-thiazol-2-ylmethoxy)phenyl)-2-oxo-1,2,3,4-tetrahydroquinazoline-7-carboxylate]
81%	O=C1Nc2cc(CO)ccc2CN1c1cc(OCc2c(F)cccc2F)ccc1Cc1ccccc1 [Example 255, 3-(2-benzyl-5-((2,6-difluorobenzyl)oxy)phenyl)-7-(hydroxymethyl)-3,4-dihydroquinazolin-2(1H)-one]
105%	Cc1ccc(S(=O)(=O)Oc2ccc3c(c2)NC(=O)N(c2cc(OCc4ncccc4F)ccc2C)C3)cc1 [Example 252, 3-(5-((3-fluoropyridin-2-yl)methoxy)-2-methylphenyl)-2-oxo-1,2,3,4-tetrahydroquinazolin-7-yl 4-methylbenzenesulfonate]
94%	CNC(=O)c1cc2c(c(C3CC3)n1)CN(c1cc3c(cc1Cl)CCC(c1ncccc1F)O3)C(=O)N2 (centres unmarked) [Example 99, 3-(6-chloro-2-(3-fluoropyridin-2-yl)-3,4-dihydro-2H-chromen-7-yl)-5-cyclopropyl-N-methyl-2-oxo-1,2,3,4-tetrahydropyrido[4,3-d]pyrimidine-7-carboxamide]
102%	O=C1Nc2cc(-c3cn[nH]c3)nc(C3CC3)c2CN1c1cc2c(cc1Cl)CCC(c1ncccc1F)O2 (centres unmarked) [Example 116, 3-(6-chloro-2-(3-fluoropyridin-2-yl)-3,4-dihydro-2H-chromen-7-yl)-5-cyclopropyl-7-(1H-pyrazol-4-yl)-3,4-dihydropyrido[4,3-d]pyrimidin-2(1H)-one]
99%	Cc1cc2c(cc1N1Cc3ncccc3NC1=O)OC(c1ncccc1F)CC2 (centres unmarked) [Example 45, 3-(2-(3-fluoropyridin-2-yl)-6-methyl-3,4-dihydro-2H-chromen-7-yl)-3,4-dihydropyrido[3,2-d]pyrimidin-2(1H)-one]
79%	Cc1ccc(OC(C)c2ncccc2F)cc1N1Cc2ccccc2NC1=O (centres unmarked) [Example 215, 3-(5-(1-(3-fluoropyridin-2-yl)ethoxy)-2-methylphenyl)-3,4-dihydroquinazolin-2(1H)-one]
97%	Cc1cc2c(cc1N1Cc3c(cc(OCC(F)F)nc3C3CC3)NC1=O)OC(c1ncccc1F)CC2 (centres unmarked) [Example 159, 5-cyclopropyl-7-(2,2-difluoroethoxy)-3-(2-(3-fluoropyridin-2-yl)-6-methyl-3,4-dihydro-2H-chromen-7-yl)-3,4-dihydropyrido[4,3-d]pyrimidin-2(1H)-one]
111%	Cc1cc2c(cc1N1Cc3c(cc(OC(F)F)nc3C3CC3)NC1=O)OC(c1ncccc1F)CC2 (centres unmarked) [Example 128, 5-cyclopropyl-7-(difluoromethoxy)-3-(2-(3-fluoropyridin-2-yl)-6-methyl-3,4-dihydro-2H-chromen-7-yl)-3,4-dihydropyrido[4,3-d]pyrimidin-2 (1H)-one]
93%	Cc1cc2c(cc1N1Cc3c(Cl)cnc(-c4ccnn4C)c3NC1=O)OC(c1ncccc1F)CC2 (centres unmarked) [Example 160, 5-chloro-3-(2-(3-fluoropyridin-2-yl)-6-methyl-3,4-dihydro-2H-chromen-7-yl)-8-(1-methyl-1H-pyrazol-5-yl)-3,4-dihydropyrido[3,4-d]pyrimidin-2(1H)-one]
106%	COC(=O)c1ccc(OCc2ncccc2F)cc1N1Cc2ccccc2NC1=O [Example 219, methyl 4-((3-fluoropyridin-2-yl)methoxy)-2-(2-oxo-1,4-dihydroquinazolin-3(2H)-yl)benzoate]
101%	Cc1ccc(OCc2ncccc2F)cc1N1Cc2c(ccnc2C2CC2)NC1=O [Example 320, 5-cyclopropyl-3-(5-((3-fluoropyridin-2-yl)methoxy)-2-methylphenyl)-3,4-dihydropyrido[4,3-d]pyrimidin-2(1H)-one]
106%	Cc1ccc(OCc2ncccc2F)cc1-n1c(=O)[nH]c2cnccc2c1=O [Example 339, 3-(5-((3-fluoropyridin-2-yl)methoxy)-2-methylphenyl)pyrido[3,4-d]pyrimidine-2,4(1H,3H)-dione]
72%	O=c1[nH]c2cnccc2c(=O)n1-c1cccc(OCc2c(F)cccc2F)c1 [Example 330, 3-(3-((2,6-difluorobenzyl)oxy)phenyl)pyrido[3,4-d]pyrimidine-2,4(1H,3H)-dione]
96%	Cc1cc2c(cc1N1Cc3ccc(C(=O)N4CCOCC4)cc3NC1=O)OC(c1ncccc1F)CC2 (centres unmarked) [Example 183, 3-(2-(3-fluoropyridin-2-yl)-6-methyl-3,4-dihydro-2H-chromen-7-yl)-7-(morpholin-4-ylcarbonyl)-3,4-dihydroquinazolin-2(1H)-one]
104%	Cc1ccc(OCc2ncccc2F)cc1N1Cc2c(C#N)cccc2NC1=O [Example 298, 3-(5-((3-fluoropyridin-2-yl)methoxy)-2-methylphenyl)-2-oxo-1,2,3,4-tetrahydroquinazoline-5-carbonitrile]
84%	CCc1ccc(OCc2c(F)cccc2F)cc1N1Cc2ccc(C(=O)OC)cc2NC1=O [Example 177, methyl 3-(5-((2,6-difluorobenzyl)oxy)-2-ethylphenyl)-2-oxo-1,2,3,4-tetrahydroquinazoline-7-carboxylate]
95%	Cc1ccc(OCc2c(F)cccc2F)cc1N1Cc2ncccc2NC1=O [Example 223, 3-(5-((2,6-difluorobenzyl)oxy)-2-methylphenyl)-3,4-dihydropyrido[3,2-d]pyrimidin-2(1H)-one]
110%	CCOC(=O)c1nccc2c1CN(c1cc3c(cc1Cl)CCC(c1ncccc1F)O3)C(=O)N2 (centres unmarked) [Example 56, ethyl 3-(6-chloro-2-(3-fluoropyridin-2-yl)-3,4-dihydro-2H-chromen-7-yl)-2-oxo-1,2,3,4-tetrahydropyrido[4,3-d]pyrimidine-5-carboxylate]
95%	Cc1ccc(OCc2ncccc2F)cc1N1Cc2ncccc2NC1=O [Example 272, 3-(5-((3-fluoropyridin-2-yl)methoxy)-2-methylphenyl)-3,4-dihydropyrido[3,2-d]pyrimidin-2(1H)-one]
